Measurements as given in patent publication US10844077B2, “Thiazolyl-containing compounds for treating proliferative diseases” (Dana-Farber Cancer Institute, Inc., priority 2014, dated 2020).
Values joined by “and” are separate entries in the source; they are usually repeats but may differ in a detail not shown here. Equal entries are not always repeated.

How the values were obtained:
Format in all cases: cell-based
[1] = molecular target: kinases in BCWM.1 cells (Homo sapiens, UniProt P48426); conditions: PIP4K2A; ATP; 1 μM, 90 min; GF
Procedure: (§1) The cells were harvested and lysed. […] Bound kinases were identified and quantitated by ACTIVX as described in Patricelli et al., Biochemistry, 2007, 46(2): 350-358. The compounds were tested in duplicates against duplicate or quadruplicate control samples.

[2] = molecular target: kinases in BCWM.1 cells (Homo sapiens, UniProt P51955); conditions: NEK2; Lys2; 1 μM, 90 min; GF
Procedure: as §1

[3] = molecular target: TLK2 (Homo sapiens (Human), UniProt Q86UE8); assay: KINATIV assay; conditions: 1 μM, 90 minutes, BCWM.1 cells
Summary of the method: (§2)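 Harvest, lyse, probe: lysates take up an ATP-biotin probe directly, and ACTIVX identifies and quantifies the kinases bound.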

[4] = molecular target: STLK5 (Homo sapiens (Human), UniProt Q7RTN6); assay: KINATIV assay; conditions: 1 μM, 90 minutes, BCWM.1 cells
Summary of the method: as §2

[5] = test system: PITSLRE; assay: KINATIV assay; conditions: 1 μM, 90 minutes, BCWM.1 cells
Summary of the method: as §2

[6] = molecular target: IKKe (Homo sapiens (Human), UniProt Q14164); assay: KINATIV assay; conditions: 1 μM, 90 minutes, BCWM.1 cells
Summary of the method: as §2

[7] = test system: MAST1, MAST2; assay: KINATIV assay; conditions: 1 μM, 90 minutes, BCWM.1 cells
Summary of the method: as §2

[8] = molecular target: CDK6 (Homo sapiens (Human), UniProt Q00534); assay: KINATIV assay; conditions: 1 μM, 90 minutes, BCWM.1 cells
Summary of the method: as §2

[9] = molecular target: NLK (Homo sapiens (Human), UniProt Q9UBE8); assay: KINATIV assay; conditions: 1 μM, 90 minutes, BCWM.1 cells
Summary of the method: as §2

[10] = molecular target: PIK3CD (Homo sapiens (Human), UniProt O00329); assay: KINATIV assay; conditions: 1 μM, 90 minutes, BCWM.1 cells
Summary of the method: as §2

[11] = test system: MST1, MST2; assay: KINATIV assay; conditions: 1 μM, 90 minutes, BCWM.1 cells
Summary of the method: as §2

[12] = molecular target: CK2a2 (Homo sapiens (Human), UniProt P19784); assay: KINATIV assay; conditions: 1 μM, 90 minutes, BCWM.1 cells
Summary of the method: as §2

[13] = molecular target: ZC2/TNIK (Homo sapiens (Human), UniProt Q9UKE5); assay: KINATIV assay; conditions: 1 μM, 90 minutes, BCWM.1 cells
Summary of the method: as §2

[14] = molecular target: AurB (Homo sapiens (Human), UniProt Q96GD4); assay: KINATIV assay; conditions: 1 μM, 90 minutes, BCWM.1 cells
Summary of the method: as §2

[15] = test system: CaMK2a, CaMK2b, CaMK2d, CaMK2g; assay: KINATIV assay; conditions: 1 μM, 90 minutes, BCWM.1 cells
Summary of the method: as §2

[16] = molecular target: EphB1 (Homo sapiens (Human), UniProt P54762); assay: KINATIV assay; conditions: 1 μM, 90 minutes, BCWM.1 cells
Summary of the method: as §2

[17] = molecular target: NEK2 (Homo sapiens (Human), UniProt P51955); assay: KINATIV assay; conditions: 1 μM, 90 minutes, BCWM.1 cells
Summary of the method: as §2

[18] = molecular target: TLK1 (Homo sapiens (Human), UniProt Q9UKI8); assay: KINATIV assay; conditions: 1 μM, 90 minutes, BCWM.1 cells
Summary of the method: as §2

[19] = molecular target: ULK1 (Homo sapiens (Human), UniProt O75385); assay: KINATIV assay; conditions: 1 μM, 90 minutes, BCWM.1 cells
Summary of the method: as §2

[20] = molecular target: NEK1 (Homo sapiens (Human), UniProt Q96PY6); assay: KINATIV assay; conditions: 1 μM, 90 minutes, BCWM.1 cells
Summary of the method: as §2

[21] = molecular target: TAO2 (Homo sapiens (Human), UniProt Q9UL54); assay: KINATIV assay; conditions: 1 μM, 90 minutes, BCWM.1 cells
Summary of the method: as §2

[22] = molecular target: MAST3 (Homo sapiens (Human), UniProt O60307); assay: KINATIV assay; conditions: 1 μM, 90 minutes, BCWM.1 cells
Summary of the method: as §2

[23] = molecular target: p38b (Homo sapiens (Human), UniProt Q15759); assay: KINATIV assay; conditions: 1 μM, 90 minutes, BCWM.1 cells
Summary of the method: as §2

[24] = molecular target: ATR (Homo sapiens (Human), UniProt Q13535); assay: KINATIV assay; conditions: 1 μM, 90 minutes, BCWM.1 cells
Summary of the method: as §2

[25] = molecular target: PAN3 (Homo sapiens (Human), UniProt Q58A45); assay: KINATIV assay; conditions: 1 μM, 90 minutes, BCWM.1 cells
Summary of the method: as §2

[26] = molecular target: LKB1 (Homo sapiens (Human), UniProt Q15831); assay: KINATIV assay; conditions: 1 μM, 90 minutes, BCWM.1 cells
Summary of the method: as §2

[27] = molecular target: SNRK (Homo sapiens (Human), UniProt Q9NRH2); assay: KINATIV assay; conditions: 1 μM, 90 minutes, BCWM.1 cells
Summary of the method: as §2

[28] = molecular target: TBK1 (Homo sapiens (Human), UniProt Q9UHD2); assay: KINATIV assay; conditions: 1 μM, 90 minutes, BCWM.1 cells
Summary of the method: as §2

[29] = molecular target: FRAP (Homo sapiens (Human), UniProt P42345); assay: KINATIV assay; conditions: 1 μM, 90 minutes, BCWM.1 cells
Summary of the method: as §2

[30] = molecular target: MAP2K7 (Homo sapiens (Human), UniProt O14733); assay: KINATIV assay; conditions: 1 μM, 90 minutes, BCWM.1 cells
Summary of the method: as §2

[31] = molecular target: GSK3B (Homo sapiens (Human), UniProt P49841); assay: KINATIV assay; conditions: GSK3B; 1 μM, 90 minutes, BCWM.1 cells
Summary of the method: as §2

[32] = molecular target: MST1 (Homo sapiens (Human), UniProt Q13043); assay: KINATIV assay; conditions: 1 μM, 90 minutes, BCWM.1 cells
Summary of the method: as §2

[33] = molecular target: HPK1 (Homo sapiens (Human), UniProt Q92918); assay: KINATIV assay; conditions: 1 μM, 90 minutes, BCWM.1 cells
Summary of the method: as §2

[34] = molecular target: MAP3K2 (Homo sapiens (Human), UniProt Q9Y2U5); assay: KINATIV assay; conditions: 1 μM, 90 minutes, BCWM.1 cells
Summary of the method: as §2

[35] = molecular target: MARK2 (Homo sapiens (Human), UniProt Q7KZI7); assay: KINATIV assay; conditions: 1 μM, 90 minutes, BCWM.1 cells
Summary of the method: as §2

[36] = molecular target: KHS1 (Homo sapiens (Human), UniProt Q9Y4K4); assay: KINATIV assay; conditions: 1 μM, 90 minutes, BCWM.1 cells
Summary of the method: as §2

[37] = molecular target: CDK4 (Homo sapiens (Human), UniProt P11802); assay: KINATIV assay; conditions: 1 μM, 90 minutes, BCWM.1 cells
Summary of the method: as §2

[38] = molecular target: MARK4 (Homo sapiens (Human), UniProt Q96L34); assay: KINATIV assay; conditions: 1 μM, 90 minutes, BCWM.1 cells
Summary of the method: as §2

Chain of SNRK (Q9NRH2 whole entry): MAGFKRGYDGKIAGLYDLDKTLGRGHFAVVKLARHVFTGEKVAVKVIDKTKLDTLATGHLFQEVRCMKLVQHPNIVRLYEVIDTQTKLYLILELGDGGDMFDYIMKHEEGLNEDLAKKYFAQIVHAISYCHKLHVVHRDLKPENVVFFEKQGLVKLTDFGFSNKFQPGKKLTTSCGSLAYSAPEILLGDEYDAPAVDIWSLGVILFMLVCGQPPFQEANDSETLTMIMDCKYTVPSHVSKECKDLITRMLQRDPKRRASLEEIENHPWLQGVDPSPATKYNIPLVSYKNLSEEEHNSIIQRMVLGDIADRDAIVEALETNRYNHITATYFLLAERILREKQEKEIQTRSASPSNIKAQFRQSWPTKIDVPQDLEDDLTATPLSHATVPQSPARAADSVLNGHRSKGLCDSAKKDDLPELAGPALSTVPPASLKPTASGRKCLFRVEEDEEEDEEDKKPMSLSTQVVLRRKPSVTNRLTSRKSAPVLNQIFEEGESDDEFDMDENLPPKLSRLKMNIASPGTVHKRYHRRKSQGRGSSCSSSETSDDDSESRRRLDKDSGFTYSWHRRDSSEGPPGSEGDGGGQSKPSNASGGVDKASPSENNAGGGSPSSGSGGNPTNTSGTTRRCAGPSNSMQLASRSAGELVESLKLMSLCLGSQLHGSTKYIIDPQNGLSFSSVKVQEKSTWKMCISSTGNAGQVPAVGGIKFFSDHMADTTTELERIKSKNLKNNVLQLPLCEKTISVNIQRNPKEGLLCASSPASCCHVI
Chain of TLK1 (Q9UKI8 whole entry): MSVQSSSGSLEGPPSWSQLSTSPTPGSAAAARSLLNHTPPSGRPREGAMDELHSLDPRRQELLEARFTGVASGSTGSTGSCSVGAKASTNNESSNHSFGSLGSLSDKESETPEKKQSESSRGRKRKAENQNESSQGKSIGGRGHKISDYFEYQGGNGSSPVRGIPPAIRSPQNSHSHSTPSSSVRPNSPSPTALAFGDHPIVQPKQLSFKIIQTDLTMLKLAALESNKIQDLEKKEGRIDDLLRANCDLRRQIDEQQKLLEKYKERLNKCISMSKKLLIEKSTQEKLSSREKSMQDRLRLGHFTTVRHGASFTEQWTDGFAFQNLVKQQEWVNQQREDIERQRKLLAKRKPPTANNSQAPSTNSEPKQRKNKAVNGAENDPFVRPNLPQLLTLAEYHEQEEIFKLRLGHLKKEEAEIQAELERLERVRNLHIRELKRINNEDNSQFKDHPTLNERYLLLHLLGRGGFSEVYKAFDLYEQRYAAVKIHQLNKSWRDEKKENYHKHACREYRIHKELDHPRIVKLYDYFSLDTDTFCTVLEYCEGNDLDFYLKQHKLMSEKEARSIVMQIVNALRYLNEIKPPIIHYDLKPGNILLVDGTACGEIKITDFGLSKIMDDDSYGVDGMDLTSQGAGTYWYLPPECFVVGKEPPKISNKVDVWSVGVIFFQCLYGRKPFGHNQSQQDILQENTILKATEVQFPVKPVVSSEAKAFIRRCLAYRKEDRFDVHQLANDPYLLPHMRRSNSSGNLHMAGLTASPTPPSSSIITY
Chain of STLK5 (Q7RTN6 whole entry): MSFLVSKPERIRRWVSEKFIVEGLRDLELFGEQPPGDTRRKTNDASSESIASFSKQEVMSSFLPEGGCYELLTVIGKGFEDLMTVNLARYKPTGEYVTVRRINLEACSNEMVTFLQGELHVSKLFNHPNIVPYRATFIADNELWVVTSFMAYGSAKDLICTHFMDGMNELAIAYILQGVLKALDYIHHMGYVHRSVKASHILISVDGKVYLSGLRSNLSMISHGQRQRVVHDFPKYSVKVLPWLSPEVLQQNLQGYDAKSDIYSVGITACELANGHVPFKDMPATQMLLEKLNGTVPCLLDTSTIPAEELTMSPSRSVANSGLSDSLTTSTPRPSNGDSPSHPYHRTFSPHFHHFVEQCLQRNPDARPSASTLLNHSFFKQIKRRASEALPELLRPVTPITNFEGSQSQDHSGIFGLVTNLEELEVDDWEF
Chain of HPK1 (Q92918 whole entry): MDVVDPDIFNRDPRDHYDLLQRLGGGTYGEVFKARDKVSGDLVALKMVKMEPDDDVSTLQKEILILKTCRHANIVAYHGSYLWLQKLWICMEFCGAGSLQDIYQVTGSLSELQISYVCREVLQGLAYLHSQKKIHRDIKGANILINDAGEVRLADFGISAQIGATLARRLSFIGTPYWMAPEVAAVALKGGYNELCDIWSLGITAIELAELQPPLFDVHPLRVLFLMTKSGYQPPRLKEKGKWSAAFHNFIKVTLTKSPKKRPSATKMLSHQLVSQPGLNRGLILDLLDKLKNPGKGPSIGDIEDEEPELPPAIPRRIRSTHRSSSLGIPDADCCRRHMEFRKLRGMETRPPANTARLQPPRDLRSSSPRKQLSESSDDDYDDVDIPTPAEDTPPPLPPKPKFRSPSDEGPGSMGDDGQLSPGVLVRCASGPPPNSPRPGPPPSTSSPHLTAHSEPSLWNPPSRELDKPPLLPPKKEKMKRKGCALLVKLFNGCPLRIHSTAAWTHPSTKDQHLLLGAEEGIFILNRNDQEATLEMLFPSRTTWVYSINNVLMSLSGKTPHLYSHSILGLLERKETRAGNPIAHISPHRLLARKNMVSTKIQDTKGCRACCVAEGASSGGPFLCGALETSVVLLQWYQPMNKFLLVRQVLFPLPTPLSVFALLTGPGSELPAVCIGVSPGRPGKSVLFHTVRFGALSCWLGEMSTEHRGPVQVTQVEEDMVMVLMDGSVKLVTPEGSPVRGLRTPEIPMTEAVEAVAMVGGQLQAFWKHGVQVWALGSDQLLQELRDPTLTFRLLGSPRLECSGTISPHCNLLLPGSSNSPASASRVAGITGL
Chain of TAO2 (Q9UL54 whole entry): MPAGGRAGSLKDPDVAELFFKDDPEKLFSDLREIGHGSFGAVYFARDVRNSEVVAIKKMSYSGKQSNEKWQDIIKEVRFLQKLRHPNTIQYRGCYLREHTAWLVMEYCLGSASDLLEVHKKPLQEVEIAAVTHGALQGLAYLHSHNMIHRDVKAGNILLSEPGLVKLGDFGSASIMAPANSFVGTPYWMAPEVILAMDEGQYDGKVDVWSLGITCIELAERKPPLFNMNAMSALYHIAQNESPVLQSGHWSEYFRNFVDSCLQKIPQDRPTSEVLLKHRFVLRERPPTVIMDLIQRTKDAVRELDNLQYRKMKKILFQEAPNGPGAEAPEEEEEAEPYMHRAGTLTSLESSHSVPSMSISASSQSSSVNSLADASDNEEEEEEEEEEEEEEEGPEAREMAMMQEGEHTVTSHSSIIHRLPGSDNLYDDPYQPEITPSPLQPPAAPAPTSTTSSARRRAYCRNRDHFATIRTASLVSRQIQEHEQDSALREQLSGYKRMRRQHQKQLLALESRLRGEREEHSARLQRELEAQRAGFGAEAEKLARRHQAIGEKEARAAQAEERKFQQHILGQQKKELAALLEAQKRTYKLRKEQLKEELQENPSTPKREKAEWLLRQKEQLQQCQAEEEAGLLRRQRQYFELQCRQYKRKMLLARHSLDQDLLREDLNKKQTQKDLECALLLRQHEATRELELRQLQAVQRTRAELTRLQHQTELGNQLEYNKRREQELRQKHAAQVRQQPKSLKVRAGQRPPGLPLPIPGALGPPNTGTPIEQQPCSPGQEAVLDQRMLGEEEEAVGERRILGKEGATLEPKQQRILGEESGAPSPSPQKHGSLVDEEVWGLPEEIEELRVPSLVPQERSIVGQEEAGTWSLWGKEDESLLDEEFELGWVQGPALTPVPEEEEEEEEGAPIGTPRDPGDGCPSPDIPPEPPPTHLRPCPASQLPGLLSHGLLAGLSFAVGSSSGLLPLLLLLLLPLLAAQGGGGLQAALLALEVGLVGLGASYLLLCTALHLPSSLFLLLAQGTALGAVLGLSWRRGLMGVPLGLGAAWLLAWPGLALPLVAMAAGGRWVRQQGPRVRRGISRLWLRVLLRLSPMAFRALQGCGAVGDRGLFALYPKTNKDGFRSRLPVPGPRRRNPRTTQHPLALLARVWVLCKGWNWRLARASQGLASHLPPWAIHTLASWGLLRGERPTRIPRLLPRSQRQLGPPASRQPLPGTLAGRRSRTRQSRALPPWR
Chain of EphB1 (P54762 18-984): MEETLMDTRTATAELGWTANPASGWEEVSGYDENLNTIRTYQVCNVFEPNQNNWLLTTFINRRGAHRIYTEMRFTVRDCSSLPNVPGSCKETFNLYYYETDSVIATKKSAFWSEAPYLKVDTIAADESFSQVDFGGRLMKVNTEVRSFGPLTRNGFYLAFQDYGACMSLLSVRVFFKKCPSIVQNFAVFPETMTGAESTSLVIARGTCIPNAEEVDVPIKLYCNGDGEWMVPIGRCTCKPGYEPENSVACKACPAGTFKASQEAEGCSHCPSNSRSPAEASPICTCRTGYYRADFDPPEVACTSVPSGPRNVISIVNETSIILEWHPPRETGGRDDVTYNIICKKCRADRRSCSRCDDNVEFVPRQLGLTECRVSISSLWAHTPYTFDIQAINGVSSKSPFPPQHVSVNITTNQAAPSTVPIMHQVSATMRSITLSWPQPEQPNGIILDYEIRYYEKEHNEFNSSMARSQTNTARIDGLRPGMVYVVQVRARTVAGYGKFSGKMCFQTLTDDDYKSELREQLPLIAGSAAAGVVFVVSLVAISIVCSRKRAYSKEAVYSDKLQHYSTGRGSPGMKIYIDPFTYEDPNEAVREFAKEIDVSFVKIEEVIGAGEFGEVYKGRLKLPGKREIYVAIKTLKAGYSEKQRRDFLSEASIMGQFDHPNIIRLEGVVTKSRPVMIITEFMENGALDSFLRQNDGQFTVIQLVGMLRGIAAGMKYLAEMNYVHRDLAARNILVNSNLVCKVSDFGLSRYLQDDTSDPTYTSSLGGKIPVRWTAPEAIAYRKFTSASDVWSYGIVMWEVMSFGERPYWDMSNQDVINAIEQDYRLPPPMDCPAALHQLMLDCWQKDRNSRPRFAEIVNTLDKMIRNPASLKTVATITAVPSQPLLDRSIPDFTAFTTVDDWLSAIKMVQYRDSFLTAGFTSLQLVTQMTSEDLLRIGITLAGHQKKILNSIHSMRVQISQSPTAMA

Row | SMILES | % change of MS signal compared to control sample [1] | % change of MS signal compared to control sample [2] | % change of MS signal compared to control sample [3] | % change of MS signal compared to control sample [4] | % change of MS signal compared to control sample [5] | % change of MS signal compared to control sample [6] | % change of MS signal compared to control sample [7] | % change of MS signal compared to control sample [8] | % change of MS signal compared to control sample [9] | % change of MS signal compared to control sample [10] | % change of MS signal compared to control sample [11] | % change of MS signal compared to control sample [12] | % change of MS signal compared to control sample [13] | % change of MS signal compared to control sample [14] | % change of MS signal compared to control sample [15] | % change of MS signal compared to control sample [16] | % change of MS signal compared to control sample [17] | % change of MS signal compared to control sample [18] | % change of MS signal compared to control sample [19] | % change of MS signal compared to control sample [20] | also measured
1 | C=CC(=O)N1CC[C@H](Nc2nccc(Nc3ncc(C(=O)Nc4c(C)cccc4C)s3)n2)C1 [Example I-3] | −15.2% | 0.9% | – | – | – | – | – | – | – | – | – | – | – | – | – | – | – | – | – | – | –
2 | C=CC(=O)N1CC[C@@H](Nc2nccc(Nc3ncc(C(=O)Nc4c(C)cccc4C)s3)n2)C1 [Example I-4] | – | – | 8.7% | 2.0% and −4.4% | −13.6% | 2.2% | −62.1% | 7.8% | 6.7% | −14.5% | 3.8% | −3.6% | 48.8% | −10.1% | 10.0% | >97% | 22.3% | 2.2% and 8.2% | 16.2% | 7.3% | % change of MS signal compared to control sample [21]: −7.0%; % change of MS signal compared to control sample [22]: 2.0%; % change of MS signal compared to control sample [23]: −29.6%; % change of MS signal compared to control sample [24]: −66.1%; % change of MS signal compared to control sample [25]: −29.0%; % change of MS signal compared to control sample [26]: −4.5%; % change of MS signal compared to control sample [27]: 35.3% and 61.9%; % change of MS signal compared to control sample [28]: −34.8%; % change of MS signal compared to control sample [29]: 4.9%; % change of MS signal compared to control sample [30]: −10.1%; % change of MS signal compared to control sample [31]: 0.7%; % change of MS signal compared to control sample [32]: 7.0%; % change of MS signal compared to control sample [33]: 26.6%; % change of MS signal compared to control sample [34]: 12.1%; % change of MS signal compared to control sample [35]: 3.6%; % change of MS signal compared to control sample [36]: −2.1%; % change of MS signal compared to control sample [37]: 6.8%
3 | CCC(=O)N1CC[C@H](Nc2nccc(Nc3ncc(C(=O)Nc4c(C)cccc4C)s3)n2)C1 [Example I-9] | −8.3% | 4.3% | – | – | – | – | – | – | – | – | – | – | – | – | – | – | – | – | – | – | –
4 | C=CC(=O)N1CCC(Cn2ccc(Nc3ncc(C(=O)Nc4c(C)cccc4Cl)s3)n2)C1 (stereo not drawn) [II-1] | – | – | 7.3% | 2.6% and 3.8% | −16.1% | −1.0% | −81.3% | 6.0% | 3.7% | −9.5% | 3.1% | 13.8% | −10.0% | −7.2% | 2.5% | 91.0% | −6.0% | 7.1% and 5.7% | 19.7% | 14.9% | % change of MS signal compared to control sample [38]: 12.8% and 9.7%; % change of MS signal compared to control sample [21]: −17.9%; % change of MS signal compared to control sample [22]: 3.8%; % change of MS signal compared to control sample [23]: −19.0%; % change of MS signal compared to control sample [24]: −55.3%; % change of MS signal compared to control sample [25]: −7.0%; % change of MS signal compared to control sample [26]: −1.2%; % change of MS signal compared to control sample [27]: 47.8% and 59.8%; % change of MS signal compared to control sample [28]: −30.2%; % change of MS signal compared to control sample [29]: 8.6%; % change of MS signal compared to control sample [30]: −0.6%; % change of MS signal compared to control sample [31]: −5.1%; % change of MS signal compared to control sample [32]: 13.2%; % change of MS signal compared to control sample [33]: 23.0% and 12.1%; % change of MS signal compared to control sample [34]: 21.3%; % change of MS signal compared to control sample [35]: 15.4%; % change of MS signal compared to control sample [36]: −0.6%; % change of MS signal compared to control sample [37]: 2.2%
